Measured values published in ChEMBL document CHEMBL4680210, “Discovery of 1,6-naphthyridinone-based MET kinase inhibitor bearing quinoline moiety as promising antitumor drug candidate” (Eur J Med Chem, 2020).
pIC50: −log10 of the molar value.

Tests used:
[1] = target: Hepatocyte growth factor receptor (Homo sapiens, UniProt P08581)
[2] = test system: HT-29; experiment: cells; settings: Homo sapiens, HT-29, 72 h
[3] = Half life in rat liver microsomes; assay type: ADME, Microsome
[4] = test system: NCI-H460; experiment: cells; settings: Homo sapiens, NCI-H460, 72 h
[5] = test system: MKN-45; experiment: cells; settings: Homo sapiens, MKN-45, 72 h
[6] = cells; settings: Homo sapiens, U-87 MG, 72 h
[7] = Half life in Sprague-Dawley rat at 1 mg/kg, iv up to 24 hrs by LC-MS/MS analysis; assay type: ADME, organism-based; settings: in vivo
[8] = test system: U87; experiment: Antitumour activity against human U87MG cells xenografted in po dosed athymic nude mouse assessed as tumour growth inhibition for 21 days; assay type: functional, organism-based; settings: dose 3-37.5 mg/kg, time 21.0 day
[9] = Cmax in Sprague-Dawley rat at 5 mg/kg, po up to 24 hrs by LC-MS/MS analysis; assay type: ADME, organism-based; set-up: route oral, dose 5 mg/kg, time <=24; settings: in vivo
[10] = AUC (0 to infinity) in Sprague-Dawley rat at 5 mg/kg, po up to 24 hrs by LC-MS/MS analysis; assay type: ADME, organism-based; set-up: route oral, dose 5 mg/kg, time <=24; settings: in vivo
[11] = animal or person; settings: Homo sapiens, U-87 MG, po, 504 h, read-out: TGI
[12] = Apparent volume of distribution in Sprague-Dawley rat at 5 mg/kg, po up to 24 hrs by LC-MS/MS analysis; assay type: ADME, organism-based; settings: in vivo
[13] = Cmax in Sprague-Dawley rat at 1 mg/kg, iv up to 24 hrs by LC-MS/MS analysis; assay type: ADME, organism-based; set-up: route intravenous, dose 1 mg/kg, time <=24; settings: in vivo
[14] = Apparent volume of distribution in Sprague-Dawley rat at 1 mg/kg, iv up to 24 hrs by LC-MS/MS analysis; assay type: ADME, organism-based; settings: in vivo, read-out: Vz
[15] = AUC (0 to infinity) in Sprague-Dawley rat at 1 mg/kg, iv up to 24 hrs by LC-MS/MS analysis; assay type: ADME, organism-based; set-up: route intravenous, dose 1 mg/kg, time <=24; settings: in vivo
[16] = target: T1, Tyrosine-protein kinase receptor UFO (Homo sapiens, UniProt P30530); experiment: Inhibition of AXL (unknown origin) using biotin as substrate preincubated for 5 mins followed by substrate addition and measured after 30 to 60 mins by HTRF assay
T1 sequence (P30530 whole entry): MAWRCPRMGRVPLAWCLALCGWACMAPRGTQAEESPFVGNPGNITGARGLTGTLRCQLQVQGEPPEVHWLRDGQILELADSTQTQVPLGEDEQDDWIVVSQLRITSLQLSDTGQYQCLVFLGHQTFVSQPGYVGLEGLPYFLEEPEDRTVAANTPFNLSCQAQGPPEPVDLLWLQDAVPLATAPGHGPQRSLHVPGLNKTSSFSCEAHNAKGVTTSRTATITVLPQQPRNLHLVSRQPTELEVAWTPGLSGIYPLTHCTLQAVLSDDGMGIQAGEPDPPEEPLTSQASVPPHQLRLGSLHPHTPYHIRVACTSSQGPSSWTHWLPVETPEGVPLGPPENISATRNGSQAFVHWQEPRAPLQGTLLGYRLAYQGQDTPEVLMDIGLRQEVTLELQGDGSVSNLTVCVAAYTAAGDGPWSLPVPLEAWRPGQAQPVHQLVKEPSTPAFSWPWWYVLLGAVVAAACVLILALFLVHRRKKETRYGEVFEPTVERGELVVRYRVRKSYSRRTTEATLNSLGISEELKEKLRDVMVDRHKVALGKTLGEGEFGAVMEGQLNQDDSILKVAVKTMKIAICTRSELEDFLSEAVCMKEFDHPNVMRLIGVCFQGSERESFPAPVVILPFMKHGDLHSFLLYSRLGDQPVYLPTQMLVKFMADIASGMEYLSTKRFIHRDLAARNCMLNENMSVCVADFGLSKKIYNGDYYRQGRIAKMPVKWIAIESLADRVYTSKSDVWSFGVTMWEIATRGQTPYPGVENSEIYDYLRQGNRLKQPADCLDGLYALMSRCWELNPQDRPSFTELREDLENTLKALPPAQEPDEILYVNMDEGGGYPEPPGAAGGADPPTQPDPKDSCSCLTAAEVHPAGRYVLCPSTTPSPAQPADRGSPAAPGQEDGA

[17] = target: Vascular endothelial growth factor receptor 3 (Homo sapiens, UniProt P35916); experiment: Inhibition of FLT4 (unknown origin) using biotin as substrate preincubated for 5 mins followed by substrate addition and measured after 30 to 60 mins by HTRF assay
[18] = Clearance in Sprague-Dawley rat at 1 mg/kg, iv up to 24 hrs by LC-MS/MS analysis; assay type: ADME, organism-based; settings: in vivo
[19] = Antitumour activity against human U87MG cells xenografted in athymic nude mouse assessed as tumour growth inhibition at 3 mg/kg, po for 21 days relative to control; assay type: functional, U87; settings: U-87 MG, 504 h, time 21 day, read-out: TGI
[20] = Oral bioavailability in Sprague-Dawley rat at 5 mg/kg up to 24 hrs by LC-MS/MS analysis; assay type: ADME, organism-based; settings: in vivo
[21] = Clearance in Sprague-Dawley rat at 5 mg/kg, po up to 24 hrs by LC-MS/MS analysis; assay type: ADME, organism-based; settings: in vivo
[22] = Half life in Sprague-Dawley rat at 5 mg/kg, po up to 24 hrs by LC-MS/MS analysis; assay type: ADME, organism-based; settings: in vivo
[23] = Antitumour activity against human U87MG cells xenografted in athymic nude mouse assessed as tumour growth inhibition at 37.5 mg/kg, po for 21 days relative to control; assay type: functional, U87; settings: U-87 MG, 504 h, time 21 day, read-out: TGI
[24] = Tmax in Sprague-Dawley rat at 5 mg/kg, po up to 24 hrs by LC-MS/MS analysis; assay type: ADME, organism-based; settings: in vivo
[25] = target: Angiopoietin-1 receptor (Homo sapiens, UniProt Q02763); experiment: Inhibition of TEK (unknown origin) using biotin as substrate preincubated for 5 mins followed by substrate addition and measured after 30 to 60 mins by HTRF assay
[26] = Antitumour activity against human U87MG cells xenografted in athymic nude mouse assessed as tumour growth inhibition at 6 mg/kg, po for 21 days relative to control; assay type: functional, U87; settings: U-87 MG, 504 h, time 21 day, read-out: TGI

Chain of Hepatocyte growth factor receptor (P08581 whole entry): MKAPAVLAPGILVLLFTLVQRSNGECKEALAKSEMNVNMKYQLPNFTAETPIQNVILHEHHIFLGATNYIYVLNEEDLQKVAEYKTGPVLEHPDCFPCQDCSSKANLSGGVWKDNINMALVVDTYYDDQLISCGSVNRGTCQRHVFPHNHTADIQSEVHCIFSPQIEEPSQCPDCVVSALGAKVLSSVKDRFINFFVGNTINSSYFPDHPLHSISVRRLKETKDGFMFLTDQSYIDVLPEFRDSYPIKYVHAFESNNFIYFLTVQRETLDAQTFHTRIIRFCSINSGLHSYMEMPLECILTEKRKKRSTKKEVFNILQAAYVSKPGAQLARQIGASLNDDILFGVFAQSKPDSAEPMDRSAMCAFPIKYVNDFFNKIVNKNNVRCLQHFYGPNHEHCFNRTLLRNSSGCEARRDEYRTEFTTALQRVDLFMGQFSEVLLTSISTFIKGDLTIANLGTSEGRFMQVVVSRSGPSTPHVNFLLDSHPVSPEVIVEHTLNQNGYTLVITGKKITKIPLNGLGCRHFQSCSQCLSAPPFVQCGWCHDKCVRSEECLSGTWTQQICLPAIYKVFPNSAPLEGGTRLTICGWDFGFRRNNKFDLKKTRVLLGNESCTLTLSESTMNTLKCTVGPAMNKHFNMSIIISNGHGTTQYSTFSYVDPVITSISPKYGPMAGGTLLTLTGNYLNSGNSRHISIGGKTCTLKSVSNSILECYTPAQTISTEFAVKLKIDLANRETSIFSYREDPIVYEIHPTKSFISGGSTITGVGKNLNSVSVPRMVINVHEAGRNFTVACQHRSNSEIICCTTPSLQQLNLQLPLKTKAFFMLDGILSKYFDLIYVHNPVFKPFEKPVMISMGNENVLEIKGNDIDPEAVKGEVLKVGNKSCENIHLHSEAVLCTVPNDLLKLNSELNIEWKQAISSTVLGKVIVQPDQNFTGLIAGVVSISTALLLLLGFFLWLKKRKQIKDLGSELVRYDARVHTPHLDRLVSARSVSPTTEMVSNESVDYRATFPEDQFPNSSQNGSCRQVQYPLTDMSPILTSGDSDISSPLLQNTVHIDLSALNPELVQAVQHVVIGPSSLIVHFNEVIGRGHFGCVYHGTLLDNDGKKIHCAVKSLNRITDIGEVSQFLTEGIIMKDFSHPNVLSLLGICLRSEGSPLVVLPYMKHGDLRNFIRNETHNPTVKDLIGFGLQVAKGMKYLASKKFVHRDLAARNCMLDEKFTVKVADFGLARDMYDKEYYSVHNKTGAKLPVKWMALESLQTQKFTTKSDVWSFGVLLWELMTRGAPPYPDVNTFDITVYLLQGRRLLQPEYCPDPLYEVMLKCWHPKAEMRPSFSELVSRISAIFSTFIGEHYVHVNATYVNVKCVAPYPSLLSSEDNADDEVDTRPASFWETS
Chain of Vascular endothelial growth factor receptor 3 (P35916 whole entry): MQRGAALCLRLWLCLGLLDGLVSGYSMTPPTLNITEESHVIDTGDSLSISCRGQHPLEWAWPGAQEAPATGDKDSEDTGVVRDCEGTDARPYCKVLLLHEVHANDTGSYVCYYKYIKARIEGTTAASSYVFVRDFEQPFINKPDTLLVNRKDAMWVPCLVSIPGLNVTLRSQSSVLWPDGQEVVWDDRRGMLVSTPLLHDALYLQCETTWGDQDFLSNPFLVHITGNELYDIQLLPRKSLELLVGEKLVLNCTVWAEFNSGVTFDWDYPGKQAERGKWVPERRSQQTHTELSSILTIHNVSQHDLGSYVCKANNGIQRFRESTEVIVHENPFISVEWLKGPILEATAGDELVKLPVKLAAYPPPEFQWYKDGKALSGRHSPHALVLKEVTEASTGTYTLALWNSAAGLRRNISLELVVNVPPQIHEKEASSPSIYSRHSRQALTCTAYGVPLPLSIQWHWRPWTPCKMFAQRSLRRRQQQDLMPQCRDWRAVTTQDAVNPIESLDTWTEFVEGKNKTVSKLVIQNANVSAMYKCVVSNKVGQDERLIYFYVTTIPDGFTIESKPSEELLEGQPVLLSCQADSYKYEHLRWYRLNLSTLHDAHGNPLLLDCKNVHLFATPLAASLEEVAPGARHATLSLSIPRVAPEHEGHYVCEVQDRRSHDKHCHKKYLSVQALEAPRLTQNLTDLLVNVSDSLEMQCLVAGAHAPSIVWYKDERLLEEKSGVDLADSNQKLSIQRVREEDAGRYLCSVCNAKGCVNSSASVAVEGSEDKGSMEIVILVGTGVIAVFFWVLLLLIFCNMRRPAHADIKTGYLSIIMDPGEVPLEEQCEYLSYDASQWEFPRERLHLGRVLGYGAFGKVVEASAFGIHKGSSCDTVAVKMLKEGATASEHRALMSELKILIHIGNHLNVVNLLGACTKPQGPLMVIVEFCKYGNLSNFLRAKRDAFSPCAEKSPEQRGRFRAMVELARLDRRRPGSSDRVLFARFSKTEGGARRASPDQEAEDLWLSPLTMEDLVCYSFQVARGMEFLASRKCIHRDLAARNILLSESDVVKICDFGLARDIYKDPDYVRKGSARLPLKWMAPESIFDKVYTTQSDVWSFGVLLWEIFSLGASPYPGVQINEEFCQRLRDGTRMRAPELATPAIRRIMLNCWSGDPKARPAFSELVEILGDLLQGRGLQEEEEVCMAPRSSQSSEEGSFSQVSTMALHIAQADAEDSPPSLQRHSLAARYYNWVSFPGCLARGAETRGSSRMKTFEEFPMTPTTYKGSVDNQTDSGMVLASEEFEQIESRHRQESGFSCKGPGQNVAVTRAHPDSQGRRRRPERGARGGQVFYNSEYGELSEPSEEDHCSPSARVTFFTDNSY
Chain of Angiopoietin-1 receptor (Q02763 whole entry): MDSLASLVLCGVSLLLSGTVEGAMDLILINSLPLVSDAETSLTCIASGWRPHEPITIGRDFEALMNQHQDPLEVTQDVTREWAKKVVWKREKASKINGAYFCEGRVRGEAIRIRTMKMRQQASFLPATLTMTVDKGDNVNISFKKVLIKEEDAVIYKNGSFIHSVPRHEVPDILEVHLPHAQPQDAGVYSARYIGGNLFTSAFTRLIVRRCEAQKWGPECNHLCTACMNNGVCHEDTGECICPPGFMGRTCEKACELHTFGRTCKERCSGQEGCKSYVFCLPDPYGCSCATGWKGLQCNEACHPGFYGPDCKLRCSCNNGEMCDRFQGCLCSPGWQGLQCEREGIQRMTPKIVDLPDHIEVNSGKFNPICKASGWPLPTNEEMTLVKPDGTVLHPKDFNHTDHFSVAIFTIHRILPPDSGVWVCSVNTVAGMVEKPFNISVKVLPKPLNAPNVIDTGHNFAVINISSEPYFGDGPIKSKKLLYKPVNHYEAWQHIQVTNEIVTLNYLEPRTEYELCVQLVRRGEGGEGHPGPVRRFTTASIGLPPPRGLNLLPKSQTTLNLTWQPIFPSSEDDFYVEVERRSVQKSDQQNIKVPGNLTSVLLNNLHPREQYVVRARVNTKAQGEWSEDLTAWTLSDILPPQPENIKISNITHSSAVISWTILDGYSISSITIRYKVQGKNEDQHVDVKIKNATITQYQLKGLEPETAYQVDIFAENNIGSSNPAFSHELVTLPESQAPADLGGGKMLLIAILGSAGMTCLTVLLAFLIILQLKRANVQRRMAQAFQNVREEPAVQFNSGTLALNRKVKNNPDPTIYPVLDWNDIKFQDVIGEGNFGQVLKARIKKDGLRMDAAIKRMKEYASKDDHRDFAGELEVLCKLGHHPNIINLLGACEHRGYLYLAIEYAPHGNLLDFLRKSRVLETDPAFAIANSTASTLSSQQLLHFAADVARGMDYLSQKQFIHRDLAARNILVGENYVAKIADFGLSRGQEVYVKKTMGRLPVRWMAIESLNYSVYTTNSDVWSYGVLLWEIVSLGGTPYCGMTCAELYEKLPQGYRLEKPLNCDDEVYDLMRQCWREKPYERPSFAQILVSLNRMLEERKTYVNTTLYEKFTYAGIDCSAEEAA

COc1cc2nccc(Oc3ccc(Nc4nccc5[nH]cc(-c6ccc(F)cc6)c(=O)c45)cc3F)c2cc1OC
pIC50 [1]: 7.12

COCCOc1cc2nccc(Oc3ccc(Nc4nccc5[nH]cc(-c6ccccc6)c(=O)c45)cc3F)c2cc1OC
pIC50 [1]: 8.11

COC(C)(C)COc1ccc2c(Oc3ccc(Nc4nccc5[nH]cc(-c6ccc(F)cc6)c(=O)c45)cc3F)ccnc2c1
pIC50 [1]: 7.88 | pIC50 [2]: 5.32 | half-life [3]: 86.8 min | pIC50 [4]: 5.36 | pIC50 [5]: 5.26 | pIC50 [6]: 4.79

O=c1c(-c2ccc(F)cc2)c[nH]c2ccnc(Nc3ccc(Oc4ccnc5cc(OCCN6CCOCC6)ccc45)c(F)c3)c12
half-life [3]: 6.6 min

COc1cc2c(Oc3ccc(Nc4nccc5[nH]cc(-c6ccc(F)cc6)c(=O)c45)cc3F)ccnc2cc1OCC(C)(C)O
pIC50 [2]: 5.68 | half-life [3]: 310 min | pIC50 [4]: 5.77 | pIC50 [5]: 5.85 | pIC50 [6]: 5.59

CC(C)(O)COc1ccc2c(Oc3ccc(Nc4nccc5[nH]cc(-c6ccc(F)cc6)c(=O)c45)cc3F)ccnc2c1
pIC50 [2]: 5.47 | half-life [3]: 248 min | pIC50 [4]: 5.49 | pIC50 [5]: 5.57 | pIC50 [6]: 5.33

COCCOc1cc2nccc(Oc3ccc(Nc4nccc5[nH]cc(-c6ccc(F)cc6)c(=O)c45)cc3F)c2cc1OC
pIC50 [1]: 7.08 | pIC50 [2]: 5.34 | half-life [3]: 63.4 min | pIC50 [4]: 5.52 | pIC50 [5]: 5.51 | pIC50 [6]: 5.28

O=c1c(-c2ccc(F)cc2)c[nH]c2ccnc(Nc3ccc(Oc4ccnc5cc(O)ccc45)c(F)c3)c12
pIC50 [1]: 8.30 | pIC50 [2]: 5.23 | half-life [3]: 53.6 min | pIC50 [4]: 4.37 | pIC50 [5]: 5.30 | pIC50 [6]: 5.14

COc1cc2c(Oc3ccc(Nc4nccc5[nH]cc(-c6ccc(F)cc6)c(=O)c45)cc3F)ccnc2cc1OCC(C)C
pIC50 [1]: 7.71

COc1cc2c(Oc3ccc(Nc4nccc5[nH]cc(-c6ccc(F)cc6)c(=O)c45)cc3F)ccnc2cc1OCCO
pIC50 [1]: 8.24 | pIC50 [2]: 5.54 | half-life [3]: 88.9 min | pIC50 [4]: 5.70 | pIC50 [5]: 5.80 | pIC50 [6]: 5.39

O=c1c(-c2ccc(F)cc2)c[nH]c2ccnc(Nc3ccc(Oc4ccnc5cc(OCCO)ccc45)c(F)c3)c12
pIC50 [2]: 5.26 | half-life [3]: 90.6 min | pIC50 [4]: 5.46 | pIC50 [5]: 5.33 | pIC50 [6]: 5.31

COc1cc2c(Oc3ccc(Nc4nccc5[nH]cc(-c6ccc(F)cc6)c(=O)c45)cc3F)ccnc2cc1OCC(C)(C)OC
pIC50 [1]: 7.92

CC(C)COc1ccc2c(Oc3ccc(Nc4nccc5[nH]cc(-c6ccc(F)cc6)c(=O)c45)cc3F)ccnc2c1
pIC50 [1]: 7.56 | half-life [3]: 90.1 min

O=c1c(-c2ccccc2)c[nH]c2ccnc(Nc3ccc(Oc4ccnc5cc(OCCCN6CCOCC6)ccc45)c(F)c3)c12
half-life [3]: 17.8 min

CC(O)COc1ccc2c(Oc3ccc(Nc4nccc5[nH]cc(-c6ccc(F)cc6)c(=O)c45)cc3F)ccnc2c1 (stereo not given)
pIC50 [1]: 6.88 | pIC50 [2]: 5.41 | half-life [3]: 85.4 min | pIC50 [4]: 5.47 | pIC50 [5]: 5.51 | pIC50 [6]: 5.07

CC(C)(O)COc1ccc2c(Oc3ccc(Nc4nccc5[nH]cc(-c6ccccc6)c(=O)c45)cc3F)ccnc2c1
half-life [7]: 240 min | TGI [8]: Dose-dependent effect | Cmax [9]: 1500 ng/mL | AUC(0-inf) [10]: 10700 ng·h/mL | inhibition in vivo at 12.5 mg/kg [11]: 131% | pIC50 [2]: 5.38 | Vz [12]: 3.3 L/kg | Cmax [13]: 500 ng/mL | Vd [14]: 0.9 L/kg | AUC(0-inf) [15]: 6600 ng·h/mL | half-life [3]: 322 min | pIC50 [16]: 7.49 | pIC50 [4]: 5.44 | pIC50 [5]: 5.54 | pIC50 [17]: 6.94 | clearance [18]: 3.33 mL/min/kg | inhibition in vivo at 3 mg/kg [19]: 47% | bioavailability [20]: 32% | CL/F [21]: 8.33 mL/min/kg | half-life [22]: 294 min | inhibition in vivo at 37.5 mg/kg [23]: 172% | Tmax [24]: 4 h | pIC50 [25]: 7.72 | inhibition in vivo at 6 mg/kg [26]: 57% | pIC50 [6]: 5.35

Cc1[nH]c2ccnc(Nc3ccc(Oc4ccnc5cc(OCC(C)(C)O)ccc45)c(F)c3)c2c(=O)c1-c1ccccc1
pIC50 [1]: 7.39

COCCOc1ccc2c(Oc3ccc(Nc4nccc5[nH]cc(-c6ccc(F)cc6)c(=O)c45)cc3F)ccnc2c1
pIC50 [1]: 8.08 | pIC50 [2]: 5.19 | half-life [3]: 104 min | pIC50 [4]: 5.37 | pIC50 [5]: 5.25 | pIC50 [6]: 5.29
